Experimental data reported in patent US20220046923A1, “HERBICIDAL CINNOLINIUM COMPOUNDS” (SYNGENTA CROP PROTECTION AG, priority 2018, published 2022).

What was measured:
Assay in all cases: Post-emergence efficacy, glasshouse spray test
Assay type in all cases: in vivo
[1] = test system: Setaria faberi (SETFA); details: evaluated after 13 days; for pest or weed control at 1000 g/ha / pest or weed control at 500 g/ha: Setaria faberi, post-emergence, 312 h, read-out: Control of weed species SETFA after post-emergence application (100=total damage to plant; 0=no damage to plant)
How it was run: (§1)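 Plants grown 14 days in glasshouse (24/16 °C day/night, 14 h light, 65% humidity), then sprayed post-emergence with formula (I) formulated in IF50 and diluted in 0.25% or 1% Empicol ESC70 + 1% ammonium sulphate. Damage scored visually 13 days after spraying (0 = none, 100 = total).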

[2] = test system: Eleusine indica (ELEIN); details: evaluated after 13 days; for pest or weed control at 1000 g/ha / pest or weed control at 500 g/ha: Eleusine indica, post-emergence, 312 h, read-out: Control of weed species ELEIN after post-emergence application (100=total damage to plant; 0=no damage to plant)
How it was run: as §1

[3] = test system: Lolium perenne (LOLPE); details: evaluated after 13 days; for pest or weed control at 1000 g/ha / pest or weed control at 500 g/ha: Lolium perenne, post-emergence, 312 h, read-out: Control of weed species LOLPE after post-emergence application (100=total damage to plant; 0=no damage to plant)
How it was run: as §1

[4] = test system: Echinochloa crus-galli (ECHCG); details: evaluated after 13 days; for pest or weed control at 1000 g/ha / pest or weed control at 500 g/ha: Echinochloa crus-galli, post-emergence, 312 h, read-out: Control of weed species ECHCG after post-emergence application (100=total damage to plant; 0=no damage to plant)
How it was run: as §1

[5] = test system: Amaranthus palmeri (AMAPA); details: evaluated after 13 days; for pest or weed control at 1000 g/ha / pest or weed control at 500 g/ha: Amaranthus palmeri, post-emergence, 312 h, read-out: Control of weed species AMAPA after post-emergence application (100=total damage to plant; 0=no damage to plant)
How it was run: as §1

[6] = test system: Euphorbia heterophylla (EPHHL); details: evaluated after 13 days; for pest or weed control at 1000 g/ha / pest or weed control at 500 g/ha: Euphorbia heterophylla, post-emergence, 312 h, read-out: Control of weed species EPHHL after post-emergence application (100=total damage to plant; 0=no damage to plant)
How it was run: as §1

[7] = test system: Ipomoea hederacea (IPOHE); details: evaluated after 13 days; for pest or weed control at 1000 g/ha / pest or weed control at 500 g/ha: Ipomoea hederacea, post-emergence, 312 h, read-out: Control of weed species IPOHE after post-emergence application (100=total damage to plant; 0=no damage to plant)
How it was run: as §1

[8] = test system: Chenopodium album (CHEAL); details: evaluated after 13 days; for pest or weed control at 1000 g/ha / pest or weed control at 500 g/ha: Chenopodium album, post-emergence, 312 h, read-out: Control of weed species CHEAL after post-emergence application (100=total damage to plant; 0=no damage to plant)
How it was run: as §1

[9] = test system: Digitaria sanguinalis (DIGSA); details: evaluated after 13 days; for pest or weed control at 1000 g/ha / pest or weed control at 500 g/ha: Digitaria sanguinalis, post-emergence, 312 h, read-out: Control of weed species DIGSA after post-emergence application (100=total damage to plant; 0=no damage to plant)
How it was run: as §1

Row | SMILES | pest or weed control at 1000 g/ha ([1]; application rate 1000 g/Ha) [%] | pest or weed control at 1000 g/ha ([2]; application rate 1000 g/Ha) [%] | pest or weed control at 1000 g/ha ([3]; application rate 1000 g/Ha) [%] | pest or weed control at 1000 g/ha ([4]; application rate 1000 g/Ha) [%] | pest or weed control at 1000 g/ha ([5]; application rate 1000 g/Ha) [%] | pest or weed control at 1000 g/ha ([6]; application rate 1000 g/Ha) [%] | pest or weed control at 1000 g/ha ([7]; application rate 1000 g/Ha) [%] | pest or weed control at 1000 g/ha ([8]; application rate 1000 g/Ha) [%] | pest or weed control at 1000 g/ha ([9]; application rate 1000 g/Ha) [%] | other results
1 | COc1ccc2cc[n+](CCS(=O)(=O)[O-])nc2c1 [Compound A85] | 30 | 40 | 20 | 20 | 100 | 80 | 70 | 100 | 20 | 
2 | COc1cccc2cc[n+](CCS(=O)(=O)[O-])nc12 [Compound A86] | 50 | 80 | 60 | 50 | 100 | 90 | 90 | 100 | 40 | 
3 | Cc1ccc2cc[n+](CCS(=O)(=O)[O-])nc2c1 [Compound A87] | 50 | 80 | 40 | 40 | 100 | 100 | 70 | 100 | 40 | 
4 | O=S(=O)([O-])CC[n+]1ccc2cc(Cl)ccc2n1 [Compound A88] | 40 | 50 | 30 | 20 | 70 | 60 | 20 | 40 | 50 | 
5 | O=C(O)c1ccc(C[n+]2ccc3ccccc3n2)cc1 [Compound A89] | 0 | 0 | 0 | 0 | 20 | 40 | 20 | 0 | 0 | 
6 | O=S(=O)(O)c1cccc(C[n+]2ccc3ccccc3n2)c1 [Compound A93, 3-(cinnolin-2-ium-2-ylmethyl)benzenesulfonic Acid] |  |  |  |  |  |  |  |  |  | Control of weed species SETFA after post-emergence application (100=total damage to plant; 0=no damage to plant) ([1]; application rate 1000 g/Ha): 20; Control of weed species ELEIN after post-emergence application (100=total damage to plant; 0=no damage to plant) ([2]; application rate 1000 g/Ha): 10; Control of weed species LOLPE after post-emergence application (100=total damage to plant; 0=no damage to plant) ([3]; application rate 1000 g/Ha): 10; Control of weed species ECHCG after post-emergence application (100=total damage to plant; 0=no damage to plant) ([4]; application rate 1000 g/Ha): 20; Control of weed species AMAPA after post-emergence application (100=total damage to plant; 0=no damage to plant) ([5]; application rate 1000 g/Ha): 10; Control of weed species EPHHL after post-emergence application (100=total damage to plant; 0=no damage to plant) ([6]; application rate 1000 g/Ha): 50; Control of weed species IPOHE after post-emergence application (100=total damage to plant; 0=no damage to plant) ([7]; application rate 1000 g/Ha): 40; Control of weed species CHEAL after post-emergence application (100=total damage to plant; 0=no damage to plant) ([8]; application rate 1000 g/Ha): 10; Control of weed species DIGSA after post-emergence application (100=total damage to plant; 0=no damage to plant) ([9]; application rate 1000 g/Ha): 20
7 | O=S(=O)([O-])CC[n+]1ccc2ccc(Cl)cc2n1 [Compound A94] | 50 | 90 | 40 | 40 | 100 | 100 | 40 | 90 | 50 | 
8 | O=S(=O)([O-])CC[n+]1ccc2cccc(C(F)(F)F)c2n1 [Compound A95] | 10 | 10 | 0 | 10 | 40 | 50 | 10 | 50 | 10 | 
9 | O=S(=O)([O-])CC[n+]1ccc2c(Cl)cccc2n1 [Compound A96] | 30 | 60 | 40 | 40 | 70 | 100 | 20 | 100 | 60 | 
10 | Cc1cccc2n[n+](CCS(=O)(=O)[O-])ccc12 [Compound A97] |  |  |  |  |  |  |  |  |  | pest or weed control at 500 g/ha ([1]; application rate 500 g/Ha): 60%; pest or weed control at 500 g/ha ([2]; application rate 500 g/Ha): 70%; pest or weed control at 500 g/ha ([3]; application rate 500 g/Ha): 10%; pest or weed control at 500 g/ha ([4]; application rate 500 g/Ha): 30%; pest or weed control at 500 g/ha ([5]; application rate 500 g/Ha): 100%; pest or weed control at 500 g/ha ([6]; application rate 500 g/Ha): 80%; pest or weed control at 500 g/ha ([7]; application rate 500 g/Ha): 10%; pest or weed control at 500 g/ha ([8]; application rate 500 g/Ha): 90%; pest or weed control at 500 g/ha ([9]; application rate 500 g/Ha): 50%
11 | O=S(=O)([O-])CC[n+]1ccc2cc(C(F)(F)F)ccc2n1 [Compound A98] |  |  |  |  |  |  |  |  |  | pest or weed control at 500 g/ha ([1]; application rate 500 g/Ha): 0%; pest or weed control at 500 g/ha ([2]; application rate 500 g/Ha): 20%; pest or weed control at 500 g/ha ([3]; application rate 500 g/Ha): 10%; pest or weed control at 500 g/ha ([4]; application rate 500 g/Ha): 10%; pest or weed control at 500 g/ha ([5]; application rate 500 g/Ha): 0%; pest or weed control at 500 g/ha ([6]; application rate 500 g/Ha): 40%; pest or weed control at 500 g/ha ([7]; application rate 500 g/Ha): 0%; pest or weed control at 500 g/ha ([8]; application rate 500 g/Ha): 30%; pest or weed control at 500 g/ha ([9]; application rate 500 g/Ha): 10%
12 | CCOP(=O)(CC[n+]1ccc2ccccc2n1)OCC.[Br-] [Compound A99] |  |  |  |  |  |  |  |  |  | Control of weed species SETFA after post-emergence application (100=total damage to plant; 0=no damage to plant) ([1]; application rate 500 g/Ha): 50; Control of weed species ELEIN after post-emergence application (100=total damage to plant; 0=no damage to plant) ([2]; application rate 500 g/Ha): 30; Control of weed species LOLPE after post-emergence application (100=total damage to plant; 0=no damage to plant) ([3]; application rate 500 g/Ha): 20; Control of weed species ECHCG after post-emergence application (100=total damage to plant; 0=no damage to plant) ([4]; application rate 500 g/Ha): 40; Control of weed species AMAPA after post-emergence application (100=total damage to plant; 0=no damage to plant) ([5]; application rate 500 g/Ha): 10; Control of weed species EPHHL after post-emergence application (100=total damage to plant; 0=no damage to plant) ([6]; application rate 500 g/Ha): 40; Control of weed species IPOHE after post-emergence application (100=total damage to plant; 0=no damage to plant) ([7]; application rate 500 g/Ha): 10; Control of weed species CHEAL after post-emergence application (100=total damage to plant; 0=no damage to plant) ([8]; application rate 500 g/Ha): 20; Control of weed species DIGSA after post-emergence application (100=total damage to plant; 0=no damage to plant) ([9]; application rate 500 g/Ha): 50
13 | COC(=O)c1ccc2n[n+](CCS(=O)(=O)[O-])ccc2c1 [Compound A100] |  |  |  |  |  |  |  |  |  | pest or weed control at 500 g/ha ([1]; application rate 500 g/Ha): 20%; pest or weed control at 500 g/ha ([2]; application rate 500 g/Ha): 10%; pest or weed control at 500 g/ha ([3]; application rate 500 g/Ha): 0%; pest or weed control at 500 g/ha ([4]; application rate 500 g/Ha): 10%; pest or weed control at 500 g/ha ([5]; application rate 500 g/Ha): 30%; pest or weed control at 500 g/ha ([6]; application rate 500 g/Ha): 40%; pest or weed control at 500 g/ha ([7]; application rate 500 g/Ha): 30%; pest or weed control at 500 g/ha ([8]; application rate 500 g/Ha): 30%; pest or weed control at 500 g/ha ([9]; application rate 500 g/Ha): 10%
14 | CCOP(=O)(O)CC[n+]1ccc2ccccc2n1 [Compound A103] |  |  |  |  |  |  |  |  |  | pest or weed control at 500 g/ha ([1]; application rate 500 g/Ha): 60%; pest or weed control at 500 g/ha ([2]; application rate 500 g/Ha): 30%; pest or weed control at 500 g/ha ([3]; application rate 500 g/Ha): 20%; pest or weed control at 500 g/ha ([4]; application rate 500 g/Ha): 30%; pest or weed control at 500 g/ha ([5]; application rate 500 g/Ha): 20%; pest or weed control at 500 g/ha ([6]; application rate 500 g/Ha): 40%; pest or weed control at 500 g/ha ([7]; application rate 500 g/Ha): 20%; pest or weed control at 500 g/ha ([8]; application rate 500 g/Ha): 0%; pest or weed control at 500 g/ha ([9]; application rate 500 g/Ha): 60%
